Here are results for 12 compounds from patent publication US5747447A, “Stable polypeptide composition” (COR Therapeutics, priority 1995, dated 1998).

The target of the assay is ADP-induced human platelet aggregation (Homo sapiens, UniProt P05106+P08514). In words: standard aggregation inhibition assay (ADP-induced human platelet aggregation). The format is cell-based. The following applies: ADP-induced human platelet aggregation; read-out: Appr, IC50. An excerpt: 2. Standard assays directly applied to platelet aggregation, such as those described by Gann, Z.-R., et al., J Biol Chem (1988) 263:19827-19832; Huang, T. F., et al., J Biol Chem (1987) 262:16157-16163; Biochemistry (1989) 28:661-666, cited above and incorporated herein by reference;
ADP-induced human platelet aggregation, sequence (P08514 32-1039): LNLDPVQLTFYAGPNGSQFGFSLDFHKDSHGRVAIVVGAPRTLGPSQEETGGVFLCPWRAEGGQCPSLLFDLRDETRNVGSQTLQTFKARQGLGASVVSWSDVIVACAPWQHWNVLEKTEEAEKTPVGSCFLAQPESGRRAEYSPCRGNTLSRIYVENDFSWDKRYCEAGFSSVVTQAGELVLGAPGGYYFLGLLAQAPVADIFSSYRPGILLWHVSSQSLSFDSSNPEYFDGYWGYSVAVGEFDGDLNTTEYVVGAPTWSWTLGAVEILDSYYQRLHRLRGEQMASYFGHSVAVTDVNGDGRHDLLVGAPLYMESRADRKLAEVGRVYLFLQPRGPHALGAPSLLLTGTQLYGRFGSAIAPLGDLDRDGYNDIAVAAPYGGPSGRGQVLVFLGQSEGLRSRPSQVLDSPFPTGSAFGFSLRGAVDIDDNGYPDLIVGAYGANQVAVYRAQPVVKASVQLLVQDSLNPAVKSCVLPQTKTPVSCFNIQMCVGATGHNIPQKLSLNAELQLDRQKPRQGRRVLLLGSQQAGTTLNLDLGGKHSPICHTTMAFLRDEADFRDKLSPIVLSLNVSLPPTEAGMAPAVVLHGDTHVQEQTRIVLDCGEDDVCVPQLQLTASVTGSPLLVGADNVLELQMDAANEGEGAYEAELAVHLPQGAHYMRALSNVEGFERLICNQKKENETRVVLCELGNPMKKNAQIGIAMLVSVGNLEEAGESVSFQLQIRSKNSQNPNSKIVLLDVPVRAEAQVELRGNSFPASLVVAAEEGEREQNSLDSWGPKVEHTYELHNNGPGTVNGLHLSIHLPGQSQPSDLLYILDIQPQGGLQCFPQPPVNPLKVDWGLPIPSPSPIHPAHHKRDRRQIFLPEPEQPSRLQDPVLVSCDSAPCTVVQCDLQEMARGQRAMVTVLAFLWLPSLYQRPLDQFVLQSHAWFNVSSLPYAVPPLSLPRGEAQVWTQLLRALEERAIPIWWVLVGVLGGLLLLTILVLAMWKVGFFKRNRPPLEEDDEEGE
ADP-induced human platelet aggregation, sequence (P05106 27-788): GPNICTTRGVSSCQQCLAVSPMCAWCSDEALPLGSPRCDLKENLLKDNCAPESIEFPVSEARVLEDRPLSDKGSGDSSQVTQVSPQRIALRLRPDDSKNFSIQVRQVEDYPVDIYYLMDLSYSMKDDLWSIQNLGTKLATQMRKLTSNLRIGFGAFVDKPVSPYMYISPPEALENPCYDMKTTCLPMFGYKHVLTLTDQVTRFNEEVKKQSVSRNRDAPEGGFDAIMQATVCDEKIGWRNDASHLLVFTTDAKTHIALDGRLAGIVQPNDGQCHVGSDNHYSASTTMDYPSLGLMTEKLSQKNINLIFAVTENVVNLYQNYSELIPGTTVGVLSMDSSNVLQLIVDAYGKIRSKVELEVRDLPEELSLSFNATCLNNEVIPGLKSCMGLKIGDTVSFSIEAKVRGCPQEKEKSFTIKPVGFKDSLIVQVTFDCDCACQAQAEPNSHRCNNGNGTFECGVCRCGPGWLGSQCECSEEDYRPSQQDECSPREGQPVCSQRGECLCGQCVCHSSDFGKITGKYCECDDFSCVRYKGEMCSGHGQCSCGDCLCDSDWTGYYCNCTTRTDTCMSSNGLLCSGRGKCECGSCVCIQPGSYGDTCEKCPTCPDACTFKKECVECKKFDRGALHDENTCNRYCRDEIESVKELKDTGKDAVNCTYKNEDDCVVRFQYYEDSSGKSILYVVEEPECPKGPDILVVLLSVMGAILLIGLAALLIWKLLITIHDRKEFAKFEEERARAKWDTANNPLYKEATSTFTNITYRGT

What is called IC50 is the point on the concentration scale where inhibition reaches its midpoint.

Structures are written as SMILES. Where a SMILES comes first, the peptide text is derived from it. Bridges are numbered along the chain shown (N, C = ends). [ ]: non-standard residue; d: D form. The star is where a group is joined. Phe(4-NO2) = N[C@@H](Cc1ccc([N+](=O)[O-])cc1)C(=O)O; NMeF = CN[C@@H](Cc1ccccc1)C(=O)O; dPen = CC(C)(S)[C@@H](N)C(=O)O; Pen = CC(C)(S)[C@H](N)C(=O)O; Orn = NCCC[C@H](N)C(=O)O; Mpa = O=C(O)CCS; Sar = CNCC(=O)O; For = O=C*

With `CC1(C)SSCCC(=O)N[C@@H](CCCCN)C(=O)NCC(=O)N[C@@H](CC(=O)O)C(=O)N[C@@H]1C(N)=O` [Analog #9, Mpr-K-G-D-Pen-NH2] ([Mpa]KGD[Pen]-NH2; disulfide 1-5), the IC50 was 25 µM.

Take `CC(=O)N[C@H]1CSSC(C)(C)[C@@H](C(N)=O)NC(=O)[C@H](CC(=O)O)NC(=O)CNC(=O)[C@H](CCCNC(=N)N)NC1=O` [Analog #11, Acetyl-C-R-G-D-Pen-NH2] (Ac-CRGD[Pen]-NH2; disulfide 1-5): the IC50 amounted to 5 µM.

As to `NCCC[C@@H]1NC(=O)[C@@H](N)CSSC[C@@H](C(N)=O)NC(=O)[C@@H]2CCCN2C(=O)[C@H](Cc2c[nH]c3ccccc23)NC(=O)[C@H](CC(=O)O)NC(=O)CNC1=O` [Analog #36, C-Orn-G-D-W-P-C-NH2] (H-C[Orn]GDWPC-NH2; disulfide 1-7), the IC50 was in the range of 150 to 200 µM.

In the case of `C[C@H]1NC(=O)[C@H](CCCCN)NC(=O)[C@@H](N)CSSC[C@@H](C(N)=O)NC(=O)[C@@H]2CCCN2C(=O)[C@H](Cc2c[nH]c3ccccc23)NC(=O)[C@H](CC(=O)O)NC1=O` [Analog #38, C-K-A.dagger.-D-W-P-C-NH2] (H-CK[dA]DWPC-NH2; disulfide 1-7), the IC50 was greater than 200 µM.

Turning to `CN1CC(=O)N[C@H](C(N)=O)CSSC[C@H](N)C(=O)N[C@@H](CCCCN)C(=O)NCC(=O)N[C@@H](CC(=O)O)C(=O)N[C@@H](Cc2c[nH]c3ccccc23)C1=O` [Analog #39, C-K-G-D-W-(Sar)-C-NH2] (H-CKGDW[Sar]C-NH2; disulfide 1-7), the IC50 was 5 µM.

`NC(=O)[C@@H]1CSSC[C@H](N)C(=O)N[C@@H](CCCCNC=O)C(=O)NCC(=O)N[C@@H](CC(=O)O)C(=O)N[C@@H](Cc2c[nH]c3ccccc23)C(=O)N2CCC[C@H]2C(=O)N1` [Analog #40, C-K(Formyl)-G-D-W-P-C-NH2] (H-CK(For)GDWPC-NH2; disulfide 1-7): the IC50 was greater than 200 µM.

In the case of `CN1CC(=O)N[C@@H](CC(=O)O)C(=O)N[C@@H](Cc2c[nH]c3ccccc23)C(=O)N2CCC[C@H]2C(=O)N[C@H](C(N)=O)CSSC[C@H](N)C(=O)N[C@@H](CCCCN)C1=O` [Analog #43, C-K-(Sar)-D-W-P-C-NH2] (H-CK[Sar]DWPC-NH2; disulfide 1-7), the 50% inhibitory concentration (IC50) stood at 50 µM.

As for `NCCCC[C@@H]1NC(=O)[C@@H](N)CSSC[C@@H](C(N)=O)NC(=O)[C@@H]2CCCN2C(=O)[C@H](Cc2ccc([N+](=O)[O-])cc2)NC(=O)[C@H](CC(=O)O)NC(=O)CNC1=O` [Analog #44, C-K-G-D-(4-NO2 -Phe)-P-C-NH2] (H-CKGD[Phe(4-NO2)]PC-NH2; disulfide 1-7), the IC50 was found to be 75 µM.

For the compound `CN1C(=O)[C@H](CC(=O)O)NC(=O)CNC(=O)[C@H](CCCCN)NC(=O)[C@@H](N)CSSC[C@@H](C(N)=O)NC(=O)[C@@H]2CCCN2C(=O)[C@@H]1Cc1ccccc1` [Analog #45, C-K-G-D-(NMePhe)-P-C-NH2] (H-CKGD[NMeF]PC-NH2; disulfide 1-7), the IC50 is greater than 200 µM.

For the compound `CC1(C)SSCCC(=O)N[C@@H](CCCCN)C(=O)NCC(=O)N[C@@H](CC(=O)O)C(=O)N[C@H](Cc2c[nH]c3ccccc23)C(=O)N2CCC[C@H]2C(=O)N[C@@H]1C(N)=O` [Analog #50, Mpr-K-G-D-W.dagger.-P-Pen-NH2] ([Mpa]KGD[dW]P[Pen]-NH2; disulfide 1-7), the concentration for half-maximal inhibition (IC50) is greater than 200 µM.

Consider `CC1(C)SSCCC(=O)N[C@@H](CCCCN)C(=O)NCC(=O)N[C@@H](CC(=O)O)C(=O)N[C@@H](Cc2c[nH]c3ccccc23)C(=O)N2CCC[C@H]2C(=O)N[C@@H]1C(N)=O` [Analog #51, Mpr-K-G-D-W-P-Pen-NH2] ([Mpa]KGDWP[Pen]-NH2; disulfide 1-7), for which the IC50 was 0.75 µM.

Consider `CC1(C)SSCCC(=O)N[C@@H](CCCCN)C(=O)NCC(=O)N[C@@H](CC(=O)O)C(=O)N[C@@H](Cc2c[nH]c3ccccc23)C(=O)N2CCC[C@H]2C(=O)N[C@H]1C(N)=O` [Analog #52, Mpr-K-G-D-W-P-Pen.dagger.-NH2] ([Mpa]KGDWP[dPen]-NH2; disulfide 1-7), for which the IC50 came out at 5 µM.
